Consider one compound from publication PMC10610188, “Structure–Activity Relationship Studies of Chalcones and Diarylpentanoids with Antitumor Activity: Potency and Selectivity Optimization” (Pharmaceuticals, 2023).

Assay [1] deals with HFF-1 cells. Put plainly: SRB growth inhibition assay in normal fibroblasts HFF-1. The settings on record: GI50 of HFF-1/GI50 of HCT116 p53^+/+. In kind it is cell-based, human. As for the experimental part: (§1) To study the in vitro antitumor potential of chalcone CM-M345 (1) and diarylpentanoid BP-C4 (2) analogues, the sulforhodamine B (SRB) assay was used to evaluate the antiproliferative activity in human colorectal HCT116 cancer cells. To assess their cytotoxicity toward normal cells, the antiproliferative effect of these compounds was also tested in human fibroblasts HFF-1 cells. In order to confirm if inhibition of proliferation was associated with p53 activation in HCT116 p53^+/+ cells, all compounds were also tested in HCT116 cells in which p53 was knocked out (HCT116 p53^−/−) and the selective index was calculated and compared to the compounds CM-M345 (1) and BP-C4 (2), for which p53-dependent antiproliferative activity was previously reported by our research group (Table 1).
(§2) The colorectal adenocarcinoma HCT116 cells (HCT116 p53^+/+) and its p53-null isogenic derivative (HCT116 p53^−/−) were given by Prof. Vogelstein (The Johns Hopkins Kimmel Cancer Center, Baltimore, USA); the normal human fibroblasts HFF-1 cell lines were from ATCC (Rockville, MD, USA). Human cells were cultured in RPMI-1640 with UltraGlutamine (Lonza, VWR, Portugal) with 10% FBS (Gibco, Alfagene, Portugal) at 37 °C with 5% CO2. The SH-SY5Y cells were cultured in DMEM/F-12 (Lonza) and 10% FBS and 2mM L-glutamine (Gibco). The cells were incubated at 37 °C in a humidified atmosphere of 5% CO2. Mycoplasma was routinely checked using the MycoAlert™ PLUS kit (Lonza). […]

Another assay has as its system human cancer cells. On the set-up: method as in PMID 34170069, doi:10.1016/j.arabjc.2016.04.015. Conditions: read-out: GI50 against human cancer cells; cited from earlier work.
Assay [2] deals with HFF-1 cells. On the set-up: method as in Moreira et al. [21]. The settings on record: SRB assay; ref Moreira et al. [21]; cited from earlier work. In general terms: In SRB staining, fixed cells bind dye roughly in proportion to their protein.
Assay [3] relates to HCT116 p53^−/− cells. Kind of assay: SRB growth inhibition assay in HCT116 p53-/- cells. The settings on record: GI50 of HCT116 p53^−/−/GI50 of HCT116 p53^+/+. In kind it is cell-based, human. As for the experimental part: as §1, §2
The test system of another assay is HCT116 p53^+/+ cells. Conditions: SRB assay; ref Moreira et al. [21]; cited from earlier work.
Assay [4] concerns HCT116 p53^−/− cells. The settings on record: SRB assay; ref Moreira et al. [21]; cited from earlier work.

The GI50 is the concentration giving 50% growth inhibition. In the case of `O=C1/C(=C/c2ccc(Cl)cc2)COC/C1=C\c1ccc(Cl)cc1` [BP-C4 (2), 3,5-bis((E)-4-chlorobenzylidene)tetrahydro-4H-pyran-4-one], the “SI2: Selective index 2” value in the assay on HFF-1 cells [1] came out at 5.79. Also, the GI50 is 6.25 µM with human cancer cells, 36.2 ± 5.54 µM with HFF-1 cells [2], 6.25 ± 1.18 µM in the assay with HCT116 p53^+/+ cells and 10.1 ± 0.47 µM with HCT116 p53^−/− cells [4]. For the same compound, the “SI1: Selective index 1” value with HCT116 p53^−/− cells [3] is 1.62.
